Reference: patent US20030165582A1, “Preparations that contain an extract of the plant pistia stratiotes” (priority 2000, published 2003)

Tested on: human adipocytes
Assay: Lipolytic activity: glycerol released from isolated adipocytes
Type: cell-based
Conditions: 90 minutes at 37° C., reference value=0
Protocol: Method: The adipocytes were isolated from human subcutaneous tissue by the standard Rodbell method (J. of Biolog. Chem.; 1964, 239, 375-380). The extract of Examples 1 to 3 each with two extracts (batches A and B) and the comparison substances were dissolved in a Hanks reference medium with a particular salt concentration (Cell and Tissue Culture, Ed: J. Paul, Churchill and Livingstone, 1975, page 484) and then contacted with the isolated adipocytes for 90 minutes at 37° C. Two to six adipocyte preparations were investigated. The percentage increase in glycerol released was spectrophotometrically determined in the supernatant of the medium by the Carpéné method (J. de Pharmacologie; 1981; 12;219-224).

Structure (SMILES)	% Increase in glycerol released (0.1 μM) [%]	% Increase in glycerol released (1.0 mM) [%]
CC(C)NCC(O)c1ccc(O)c(O)c1 (centres unmarked) [Isoprenalin]	129	
Cn1c(=O)c2[nH]cnc2n(C)c1=O [Theophylline]		187
